Columns and labels:
human B1R = molecular target: T1, human B1R (Homo sapiens, UniProt P46663); assay: Functional investigation on the bradykinin 1 receptor (B1R), cell-based fluorescent calcium-mobilization assay (FLIPR/Novostar), human; conditions: 10 μM test substance; CHO K1 cells stably transfected with human B1R gene; agonist Lys-Des-Arg9-bradykinin at EC80; % inhibition compared with maximum achievable inhibition; read-out: B1R antagonism, human [10 μM] % inhibition
T1 construct: expressed in transfected cells; host or cells: CHO K1 cells
T1 sequence (P46663 1-353): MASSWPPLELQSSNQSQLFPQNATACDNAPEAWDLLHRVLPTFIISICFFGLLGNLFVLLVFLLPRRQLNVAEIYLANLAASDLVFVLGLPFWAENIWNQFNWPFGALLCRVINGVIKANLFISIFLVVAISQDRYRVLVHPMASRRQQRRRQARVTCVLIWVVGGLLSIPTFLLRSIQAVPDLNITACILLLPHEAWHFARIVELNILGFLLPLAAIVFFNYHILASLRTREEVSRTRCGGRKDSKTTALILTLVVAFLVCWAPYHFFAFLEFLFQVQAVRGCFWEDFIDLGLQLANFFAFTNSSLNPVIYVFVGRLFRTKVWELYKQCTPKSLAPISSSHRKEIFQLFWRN
Method in brief: (§1)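 Stably transfected CHO K1 cells loaded with Fluo-4-AM; fluorescence peak read by FLIPR/Novostar (ex 488, em 540 nm). Test compounds at 10 μM give % activation vs Lys-Des-Arg9-BK (human) or Des-Arg9-BK (rat); after 6-20 min, agonist added at EC80 and % inhibition vs maximum achievable inhibition derived.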

B1R of rats = molecular target: T2, B1R of rats (Rattus norvegicus, UniProt P97583); assay: Functional investigation on the bradykinin 1 receptor (B1R), cell-based fluorescent calcium-mobilization assay (FLIPR/Novostar), rat; conditions: 10 μM test substance; CHO K1 cells stably transfected with rat B1R gene; agonist Des-Arg9-bradykinin at EC80; % inhibition compared with maximum achievable inhibition; read-out: B1R antagonism, rat [10 μM] % inhibition
T2 construct: expressed in transfected cells; host or cells: CHO K1 cells
T2 sequence (P97583 1-337): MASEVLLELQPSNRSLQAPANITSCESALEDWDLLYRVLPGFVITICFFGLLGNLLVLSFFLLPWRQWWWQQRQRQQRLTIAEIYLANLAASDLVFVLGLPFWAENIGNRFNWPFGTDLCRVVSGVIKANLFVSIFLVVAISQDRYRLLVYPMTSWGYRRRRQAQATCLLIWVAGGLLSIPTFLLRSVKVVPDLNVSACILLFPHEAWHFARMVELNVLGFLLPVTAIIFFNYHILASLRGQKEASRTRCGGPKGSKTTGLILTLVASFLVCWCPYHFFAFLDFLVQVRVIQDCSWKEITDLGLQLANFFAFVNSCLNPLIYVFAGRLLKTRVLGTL
Method in brief: as §1

Row | SMILES | inhibition at 10 µM (human B1R) [%] | inhibition at 10 µM (B1R of rats) [%]
1 | CN1CCN(C2(CNC(=O)c3cccnc3)CCN(C(=O)COCC3CCc4ccccc4N3S(=O)(=O)c3ccc(Cl)c(Cl)c3)CC2)CC1 (stereo not drawn) [Example 40, N-((1-(2-((1-(3,4-dichlorophenylsulfonyl)-1,2,3,4-tetrahydroquinolin-2-yl)methoxy)acetyl)-4-(4-methylpiperazin-1-yl)piperidin-4-yl)methyl)nicotinamide] | 49 | 103
2 | COc1cc(C)c(S(=O)(=O)N(CCOCC(=O)N2CCC(CNC(C)=O)(N3CCN(c4ccncc4)CC3)CC2)C2CC2)c(C)c1 [Example 46, N-((1-(2-(2-(N-Cyclopropyl-4-methoxy-2,6-dimethylphenylsulfonamido)ethoxy)acetyl)-4-(4-(pyridin-4-yl)piperazin-1-yl)piperidin-4-yl)methyl)acetamide] | 100 | 101
3 | O=C(NCC1(N2CCN(C3CC3)CC2)CCN(C(=O)COCCN(C2CC2)S(=O)(=O)c2ccccc2C(F)(F)F)CC1)c1ccncc1 [Example 47, N-((1-(2-(2-(N-Cyclopropyl-2-(trifluoromethyl)phenylsulfonamido)ethoxy)acetyl)-4-(4-cyclopropylpiperazin-1-yl)piperidin-4-yl)methyl)isonicotinamide] | 100 | 99
4 | CN1CCN(C2(CNC(=O)c3cccnc3)CCN(C(=O)CC(NS(=O)(=O)c3ccc4ccccc4c3)c3ccccc3)CC2)CC1 (stereo not drawn) [Example 38, N-((4-(4-methylpiperazin-1-yl)-1-(3-(naphthalene-2-sulfonamido)-3-phenylpropanoyl)piperidin-4-yl)methyl)nicotinamide] | 50 | 73
5 | CC(=O)NCC1(N2CCN(c3ccncc3)CC2)CCN(C(=O)CC2CCCCN2S(=O)(=O)c2cccc(C(F)(F)F)c2)CC1 (stereo not drawn) [Example 36, N-((4-(4-(pyridin-4-yl)piperazin-1-yl)-1-(2-(1-(3-(trifluoromethyl)phenyl-sulfonyl)piperidin-2-yl)acetyl)piperidin-4-yl)methyl)acetamide] | 99 | 101
6 | CN1CCN(C2(CNC(=O)c3ccccc3)CCN(C(=O)CC(NS(=O)(=O)c3ccc4ccccc4c3)c3ccccc3)CC2)CC1 (stereo not drawn) [Example 16, N-((4-(4-methylpiperazin-1-yl)-1-(3-(naphthalene-2-sulfonamido)-3-phenylpropanoyl)piperidin-4-yl)methyl)benzamide] | 94 | 31
7 | COc1cc(C)c(S(=O)(=O)N(CCOCC(=O)N2CCC(CN3Cc4ccccc4C3=O)(N3CCN(C4CC4)CC3)CC2)C2CC2)c(C)c1 [Example 42, N-Cyclopropyl-N-(2-(2-(4-(4-cyclopropylpiperazin-1-yl)-4-((1-oxoisoindolin-2-yl)methyl)piperidin-1-yl)-2-oxoethoxy)ethyl)-4-methoxy-2,6-dimethylbenzenesulfonamide] | 97 | 96
8 | CN1CCN(C2(CNC(=O)c3ccncc3)CCN(C(=O)CC(NS(=O)(=O)c3ccc4ccccc4c3)c3ccccc3)CC2)CC1 (stereo not drawn) [Example 37, N-((4-(4-methylpiperazin-1-yl)-1-(3-(naphthalene-2-sulfonamido)-3-phenylpropanoyl)piperidin-4-yl)methyl)isonicotinamide] | 46 | 71
9 | CN1CCN(C2(CNC(=O)c3ccccc3)CCN(C(=O)COCC3CCc4ccccc4N3S(=O)(=O)c3ccc(Cl)c(Cl)c3)CC2)CC1 (stereo not drawn) [Example 23, N-((1-(2-((1-(3,4-dichlorophenylsulfonyl)-1,2,3,4-tetrahydroquinolin-2-yl)methoxy)acetyl)-4-(4-methylpiperazin-1-yl)piperidin-4-yl)methyl)benzamide] | 99 | 54
10 | COc1cc(C)c(S(=O)(=O)N2CCCCC2COCC(=O)N2CCC(CNC(=O)c3cccnc3)(N3CCN(C)CC3)CC2)c(C)c1 (stereo not drawn) [Example 34, N-((1-(2-((1-(4-methoxy-2,6-dimethylphenylsulfonyl)piperidin-2-yl)methoxy)acetyl)-4-(4-methylpiperazin-1-yl)piperidin-4-yl)methyl)nicotinamide] | 104 | 102
11 | CN1CCN(C2(CNC(=O)Cc3ccccc3)CCN(C(=O)CC(NS(=O)(=O)c3ccc4ccccc4c3)c3ccccc3)CC2)CC1 (stereo not drawn) [Example 8, N-((4-(4-methylpiperazin-1-yl)-1-(3-(naphthalene-2-sulfonamido)-3-phenylpropanoyl)piperidin-4-yl)methyl)-2-phenylacetamide] | 75 | 29
12 | COc1cc(C)c(S(=O)(=O)N2CCCCC2COCCC(=O)N2CCC(CNC(=O)c3ccncc3)(N3CCN(C)CC3)CC2)c(C)c1 (stereo not drawn) [Example 52, N-((1-(3-((1-(4-Methoxy-2,6-dimethylphenylsulfonyl)piperidin-2-yl)methoxy)propanoyl)-4-(4-methylpiperazin-1-yl)piperidin-4-yl)methyl)isonicotinamide] | 100 | 102

Source: patent US8541573B2, “Substituted sulfonamide compounds” (Gruenenthal GmbH, priority 2008, dated 2013)
